Measured values taken from PubChem BioAssay (NCI).
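The compound was tested at five concentrations on cells cultured in 96-well plates, with a 48-hour exposure period. Here, GI50 denotes the concentration required for 50% inhibition of growth. TGI denotes the concentration required for complete inhibition of growth.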

What was measured:
Test in all cases: growth of human tumour cells (NCI), 48 h
[1] = system: ACHN renal
[2] = system: CCRF-CEM leukemia
[3] = system: HCC-2998 colon
[4] = system: MALME-3M melanoma
[5] = system: RPMI-8226 leukemia
[6] = system: SN12C renal
[7] = system: SW-620 colon
[8] = system: TK-10 renal
[9] = system: U251 CNS
[10] = system: UO-31 renal

Compound | TGI [1] | TGI [2] | TGI [3] | TGI [4] | TGI [5] | TGI [6] | TGI [7] | TGI [8] | TGI [9] | TGI [10] | GI50 [1] | GI50 [2] | GI50 [3] | GI50 [4] | GI50 [5] | GI50 [6] | GI50 [7] | GI50 [8] | GI50 [9] | GI50 [10]
CS(=O)(=O)N/N=C/CN1C(=O)c2ccccc2C1=O | > 100 µM | > 100 µM | > 100 µM | > 100 µM | > 100 µM | > 100 µM | > 100 µM | > 100 µM | > 100 µM | > 100 µM | – | – | – | – | – | – | – | – | – | –
Cn1c(=O)c2c(nc(Nc3cc(=O)[nH]c(=O)[nH]3)n2Cc2ccccc2)n(C)c1=O | > 100 µM | > 100 µM | > 100 µM | > 100 µM | > 100 µM | > 100 µM | > 100 µM | > 100 µM | > 100 µM | > 100 µM | > 100 µM | > 100 µM | > 100 µM | > 100 µM | 15.9 µM | > 100 µM | > 100 µM | > 100 µM | > 100 µM | 77 µM
COc1cc(Nc2cn[nH]c2-c2ccc(Cl)cc2)cc(OC)c1OC | > 76.8 µM | > 81.9 µM | 23.4 µM | 45.8 µM | 12.3 µM | > 100 µM | 23.7 µM | 62.9 µM | 33.3 µM | 28.8 µM | 7.41 µM | 3.42 µM | 5.46 µM | 4.51 µM | 2.48 µM | 8.68 µM | 3.87 µM | 9.13 µM | 4.91 µM | 4.09 µM
O=C(O)CNc1cc(-c2ccccc2)nc(NCC(=O)O)n1 | > 100 µM | > 100 µM | > 100 µM | > 100 µM | > 100 µM | > 100 µM | > 100 µM | > 100 µM | > 100 µM | > 100 µM | – | – | – | – | – | – | – | – | – | –
C=C(CCCCC)CN1CCCC1[C@@](C)(O)CC(=O)OCC (stereo not given in full) | > 100 µM | > 100 µM | > 100 µM | > 100 µM | > 100 µM | > 100 µM | > 100 µM | > 100 µM | > 100 µM | > 100 µM | – | – | – | – | – | – | – | – | – | –
CC/C(=C(/c1ccc(OCCN(C)C)cc1)c1ccc(OC(=O)CCCCC(=O)c2c(C)[nH]c(/C=C3\N=C(c4ccc[nH]4)C=C3OC)c2C)cc1)c1ccccc1 | 22.8 µM | > 100 µM | 26.7 µM | 34.4 µM | 18.8 µM | 21.4 µM | 11.4 µM | 25.4 µM | 18.3 µM | 21.3 µM | 4.84 µM | 0.32 µM | 13.2 µM | 9.28 µM | 3.17 µM | 5.39 µM | 3.16 µM | 12.8 µM | 5.22 µM | 2.81 µM
O=c1nc2occc2cn1C1CC(O)C(CO)O1 (stereo not given) | > 100 µM | > 100 µM | > 100 µM | > 100 µM | > 100 µM | > 100 µM | > 100 µM | > 100 µM | > 100 µM | > 100 µM | – | – | – | – | – | – | – | – | – | –
